From patent publication US12617752B2, “Rapidly metabolized lipid compound” (Beijing Jitai Life Sciences Ltd, priority 2023, dated 2026)

Legend:
[1] = Particle size and PDI of lipid nanoparticles by dynamic light scattering; assay type: physicochemical; settings: lipid nanoparticles with luciferase mRNA; ionizable lipid/cholesterol/DSPC/DMG-PEG2000 50/38.5/10/1.5 mol%
Outline: (§1)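 LNPs of ionizable lipid/cholesterol/phospholipid/PEG-lipid (50/38.5/10/1.5 mol%, N/P 6) were formed by microfluidic mixing with mRNA in pH 4.5 acetate, then buffer-exchanged by ultrafiltration. Size and PDI were measured by DLS. Encapsulation came from RiboGreen fluorescence (485/528 nm) in TE pH 7.5, with and without 0.5% Triton at 37 °C for 30 min.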

[2] = Encapsulation efficiency of lipid nanoparticles (Quant-it RiboGreen RNA Assay); assay type: physicochemical; settings: lipid nanoparticles with luciferase mRNA
Outline: as §1

C57BL/6 mice = test: In vivo delivery of luciferase mRNA lipid nanoparticles in mice (bioluminescence imaging); settings: intravenous, single dose 0.5 mg/kg luciferase mRNA
Outline: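 Female C57BL/6 mice, 6-8 weeks old, received luciferase mRNA lipid nanoparticles as a single intravenous dose of 0.5 mg/kg mRNA. At 6 h, D-luciferin given intraperitoneally; 10 min later, mice were imaged under isoflurane anaesthesia. Values are group mean fluorescence intensity and total photon count.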

Row | Particle size (nm) [1] [nm] | Particle-size distribution (PDI) [1] | Encapsulation efficiency (%) [2] [%] | SMILES | Total photon count in vivo at 6 hours after administration (Total Flux) (C57BL/6 mice)
1 | 121.89 | 0.08 | 95.26 | CCCCCCCCCC(=O)OCC1(CCCCCN(CCCCCCCC(=O)OCC(CCCCCCC)CCCCCCC)C(=O)SCCCN(C)C)CC1 [43b] | 1.29E+10
2 | 92.67 | 0.20 | 96.84 | CCCCCCCCCOC(=O)OCCCCCCN(CCO)CCCCC(C)(C)CCC(=O)OCC(CCCCCCC)CCCCCCC [44a] | 1.06E+11
3 | 92.63 | 0.15 | 97.45 | CCCCCCCCCC(=O)OCC1(CCCCCN(CCCCCCCC(=O)OCC(CCCCCCC)CCCCCCC)C(=O)SCCCCN(C)C)CC1 [44b] | 1.16E+10
4 | 110.83 | 0.16 | 93.03 | CCCCCCCCCOC(=O)CCC(C)(C)CCCCN(CCO)CCCCCCOC(=O)OCC(CCCCCCC)CCCCCCC [46a] | 9.06E+10
5 | 98.91 | 0.09 | 97.78 | CCCCCCCCCCC(=O)OCC(C)(C)CCCCCN(CCCCCCOC(=O)OC(CCCCCCCCC)CCCCCCCCC)C(=O)SCCCCN(C)C [46b] | 2.44E+10
6 | 78.03 | 0.12 | 98.67 | CCCCCCCC(CCCCCCC)COC(=O)CCCCC(C)(C)CCN(CCO)CCCCCCOC(=O)OCC(CCCCCCC)CCCCCCC [50a] | 2.86E+10
7 | 92.08 | 0.15 | 94.81 | CCCCCCCCCOC(=O)CCCCCCCN(CCO)CCCCC(C)(C)COC(=O)OCC(CCCCCCC)CCCCCCC [51a] | 3.11E+10
8 | 91.96 | 0.12 | 95.92 | CCCCCCCCCC(=O)OCC(C)(C)CCCCCN(CCO)CCCCCCCC(=O)OC(CCCCCCCCC)CCCCCCCCC [51b] | 7.60E+10
9 | 124.00 | 0.23 | 90.96 | CCCCCCCCCCCSC(=O)CCCCCN(CCO)CCCCCCC(C)(C)C(=O)OC(CCCCCCCC)CCCCCCCC [53a] | 9.04E+10
10 | 81.37 | 0.17 | 96.69 | CCCCCCCCCCC(=O)OCCC(C)(C)CCCCN(CCO)CCCCCCCC(=O)OC(CCCCCCCCC)CCCCCCCCC [54b] | 5.71E+10
11 | 90.37 | 0.11 | 94.65 | CCCCCCCCCCC(=O)OCCC(C)(C)CCCCN(CCCCO)CCCCCCCC(=O)OC(CCCCCCCCC)CCCCCCCCC [55b] | 1.02E+11
12 | 98.59 | 0.16 | 93.87 | CCCCCCCCCC(=O)OCCC(C)(C)CCCCN(CCO)CCCCCCCC(=O)OCC(CCCCCCC)CCCCCCC [56b] | 8.35E+10

Continued, molecule first:

Row | SMILES | Particle size (nm) [1] [nm] | Particle-size distribution (PDI) [1] | Encapsulation efficiency (%) [2] [%] | Total photon count in vivo at 6 hours after administration (Total Flux) (C57BL/6 mice)
13 | CCCCCCCCCOC(=O)C(C)(C)CCCCCCN(CCO)CCCCCCOC(=O)OCCC(CCCCCC)CCCCCC [41a] | 114.03 | 0.13 | 94.51 | 1.11E+11
14 | CCCCCCCCCOC(=O)C(C)(C)CCCCCCN(CCO)CCCCCCOC(=O)OCCCC(CCCCC)CCCCC [42a] | 104.13 | 0.17 | 95.54 | 3.47E+10
15 | CCCCCCCCCOC(=O)C(C)(C)CCCCCCN(CCO)CCCCCCOC(=O)OCCCCC(CCCC)CCCC [43a] | 105.63 | 0.15 | 97.03 | 2.23E+10
16 | CCCCCCCCCOC(=O)CC(C)(C)CCCCCN(CCO)CCCCCCOC(=O)OCC(CCCCCCC)CCCCCCC [45a] | 114.73 | 0.15 | 94.63 | 1.22E+11
17 | CCCCCCCCCOC(=O)CCCCC(C)(C)CCN(CCO)CCCCCCOC(=O)OCC(CCCCCCC)CCCCCCC [47a] | 104.47 | 0.21 | 93.23 | 3.10E+10
18 | CCCCCCCCCC(=O)OCC(C)(C)CCCCCN(CCCCCCOC(=O)OCC(CCCCCCC)CCCCCCC)C(=O)SCCCN(C)C [47b] | 122.40 | 0.07 | 97.27 | 2.84E+10
19 | CCCCCCCCCCOC(=O)OCCCCCCN(CCO)CCCCCCC(C)(C)C(=O)OC(CCCCCCCCC)CCCCCCCCC [48a] | 81.22 | 0.16 | 96.13 | 8.16E+10
20 | CCCCCCCCCCCOC(=O)OCCCCCCN(CCO)CCCCCCC(C)(C)C(=O)OC(CCCCCCCCCC)CCCCCCCCCC [49a] | 100.56 | 0.14 | 94.85 | 2.28E+10
21 | CCCCCCCCOC(=O)OCC(C)(C)CCCCCN(CCCCCCOC(=O)CC(CCCCCCCC)CCCCCCCC)C(=O)SCCCCN(C)C [50b] | 98.36 | 0.13 | 98.50 | 1.01E+10
22 | CCCCCCCCCSC(=O)CCCCCCCN(CCO)CCCCCCC(C)(C)C(=O)OC(CCCCCCCC)CCCCCCCC [52a] | 79.40 | 0.09 | 93.30 | 2.58E+10
23 | CCCCCCCCCC(=O)OCC(C)(C)CCCCCN(CCCCO)CCCCCCCC(=O)OC(CCCCCCCCC)CCCCCCCCC [52b] | 105.97 | 0.06 | 90.84 | 1.01E+11
24 | CCCCCCCCCC(=O)OCC1(CCCCCN(CCO)CCCCCCCC(=O)OC(CCCCCCCCC)CCCCCCCCC)CC1 [53b] | 125.03 | 0.42 | 91.92 | 1.00E+11
25 | CCCCCCC#CCOC(=O)CCCCCCCN(CCO)CCCCCCC(C)(C)C(=O)OC(CCCCCCCC)CCCCCCCC [54a] | 87.37 | 0.14 | 91.34 | 1.32E+10
26 | CCCCCC#CCCOC(=O)CCCCCCCN(CCO)CCCCCCC(C)(C)C(=O)OC(CCCCCCCC)CCCCCCCC [55a] | 126.17 | 0.16 | 73.85 | 1.96E+10
27 | CCCCCC/C=C\COC(=O)CCCCCCCN(CCO)CCCCCCC(C)(C)C(=O)OC(CCCCCCCC)CCCCCCCC [57a] | 79.17 | 0.17 | 95.41 | 3.42E+10
28 | CCCCCCCCCC(=O)OCCCC(C)(C)CCCN(CCO)CCCCCCCC(=O)OCC(CCCCCCC)CCCCCCC [57b] | 98.23 | 0.18 | 94.15 | 3.86E+10
